Measured values as given in patent US7282522B2, “Hydroxamic acid derivatives and the method for preparing thereof” (Amorepacific Corporation, priority 2003, dated 2007).

Tests used:
[1] = system: collagenase; assay: Inhibition of collagenase expression in human fibroblasts (ELISA kit); assay type: cell-based; conditions: 10^−4M, 24 hours, serum-free medium, relative to control group = 100
Description: Human fibroblasts were seeded into 96-well microtiter plate at 5,000 cells per well and then cultured to 90% of growth in DMEM (Dulbecco's Modified Eagle's Media) supplemented with 2.5% fetal bovine serum. Then, the fibroblastes were cultured in serum-free DMEM for 24 hours and treated for 24 hours with 10^−4M of hydroxamic acid derivatives of Examples 1˜55, retinol or retinoic acid in serum-free medium, and then the culture fluid was collected.
(§1) For each culture fluid, collagenase production was measured with collagenase kit (commercialized by AmershamPharmacia Biotech). Firstly, the culture fluid was added to 96-well plate spread with primary collagenase antibody and then antigen-antibody reaction was performed in an incubator for 3 hours. Later, chromophore-conjugated secondary antibody was added to the 96-well plate and then reacted for 15 minutes. Then, color former was added thereto, to induce development at room temperature for 15 minutes. 1M of sulfuric acid was added to stop the reaction. […] The color density depends on the progress of the reaction. The absorbance of the yellow 96-well plate was measured at 405 nm using absorptiometer. Collagenase expression was calculated by the following equation 1. Herein, the absorbance of the culture fluid collected from the medium with no material treated was used as a control. Collagenase expression (%)=(Absorbance of test group with said material treated/Absorbance of control group with no material treated)×100 [Equation 1]
Collagenase expression was evaluated as a relative value, in consideration that the value of control group with no material treated is 100.

[2] = target: T1, RARα (Homo sapiens, UniProt P10276); assay: RARE-luciferase reporter assay in transfected CV-1 cells (affinity to retinoic acid receptor), RARα; assay type: cell-based; conditions: treated 24 hours at final concentration 10^−4M, control group 1000
T1 construct: expressed in transfected cells; host or cells: CV-1 cells (ATCC)
T1 sequence (P10276 1-462): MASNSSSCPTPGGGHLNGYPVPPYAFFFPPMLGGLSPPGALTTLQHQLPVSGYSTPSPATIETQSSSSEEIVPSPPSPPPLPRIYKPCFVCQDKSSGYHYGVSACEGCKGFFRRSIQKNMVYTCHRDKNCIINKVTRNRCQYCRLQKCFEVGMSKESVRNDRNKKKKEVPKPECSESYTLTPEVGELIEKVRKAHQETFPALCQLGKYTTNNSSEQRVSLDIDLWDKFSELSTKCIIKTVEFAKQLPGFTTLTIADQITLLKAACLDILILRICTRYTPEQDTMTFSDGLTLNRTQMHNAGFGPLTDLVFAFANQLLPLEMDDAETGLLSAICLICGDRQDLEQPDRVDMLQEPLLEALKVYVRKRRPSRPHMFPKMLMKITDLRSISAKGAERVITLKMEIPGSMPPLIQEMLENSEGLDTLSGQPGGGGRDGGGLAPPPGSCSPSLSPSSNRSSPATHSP
Description: This example illustrates affinities of hydroxamic acid derivatives obtained in Examples 1 to 55 to retinoic acid receptor, in comparison with retinol and retinoic acid.
(§2) Receptor-expression plasmid, pECE-RARα and pECE-RARγ were engineered by the prior method (Mol. Cell. Biol. 1996, 16, 1138-1149). RARE-tk-Luc, i.e. RARE reporter was obtained by inserting RARE fragment from b-RARE-tk-CAT into pGL3 luciferase basic vector. CV-1 cells were obtained from ATCC (American Type Culture Collection).
CV-1 cells were seeded into 96-well microtiter plate at 5,000 cells per well and cultured in DMEM (Dulbecco's Modified Eagle's Media) supplemented with 2.5% fetal bovine serum. 24 Hours later, the cells were transfected with 10 ng of pECE-RARα, long of pECE-RARγ, 100 ng of reporter plasmid and 100 ng of β-galactosidase-expression vector, using LipofectaminPlus (GIBCO BRL, grand island, N.Y.). 24 Hours post-transfection, the cells were treated for 24 hours with hydroxamic acid derivatives of Examples 1˜55 or retinol at a final concentration of 10^−4M or with retinoic acid at a final concentration of 10^−5M, which is 10 times lower concentration than those of the former.

[3] = system: rabbits; assay: Primary skin irritation test on animals (Draize P.I.I.); conditions: depilated back; for P.I.I. (Primary Irritation Index): 0.5 ml of 1% solution in 1,3-butylene glycol:ethanol 7:3, observed 24 or 72 hours later; for Evaluation (skin irritation): 1% solution, according to Draize's P.I.I.
[4] = system: procollagen type I; assay: Effect on collagen biosynthesis (procollagen type I ELISA) in human fibroblasts; assay type: cell-based; conditions: 10^−4M, 24 hours, serum-free medium, relative to control group = 100
Description: Human fibroblasts were seeded into 24-well plate at 1×10^5 cells per well and then cultured to 90% of growth.
For each supernatant, procollagen production was measured with procollagen type I ELISA kit.

[5] = system: elastase; assay: Inhibition of elastase expression in human fibroblasts (ELISA kit); assay type: cell-based; conditions: 10^−4M, 24 hours, serum-free medium, relative to control group = 100
Description: as §1, with “elastase” for “collagenase”, “Elastase” for “Collagenase”, “2.” for “1.”, “2]” for “1]”
Elastase expression was evaluated as a relative value, in consideration that the value of control group with no material treated is 100.

[6] = system: white guinea pigs; assay: Phototoxicity test (UVA irradiation); conditions: for Evaluation (phototoxicity): 1%(w/v) solution, UVA 15 J/cm^2; for Phototoxic index: 50 μl of 1%(w/v) solution, UVA 320~380 nm 15 J/cm^2, observed 24, 48 and 72 hours
Description: Test was performed for twenty-five (25) of white guinea pigs whose backs were depilated and fixed. On both sides of the back, six(6) sites of 2 cm×2 cm, three(3) per side were sectioned. Right sites were compared as controls with no irradiation (UV non-irradiation sites) and left sites were irradiated (UV irradiation sites).
30 Minutes later, right sites were shielded with aluminum foil and UVA(320˜380 nm) was irradiated at a distance of about 10 cm therefrom using Waldmann to the final energy of 15 J/cm^2. After 24, 48 and 72 hours elapsed, skin response of guinea pig was observed. […] Evaluation was estimated for each elapsed time, i.e. 24, 48 and 72 hours and maximum scores were selected, to calculate irritation index by the following equation 3. Then, phototoxic index was calculated by the following equation 4. Irritation index=(ΣMaximum of erythema+ΣMaximum of edema)/Number of animals [Equation 3] Phototoxic index=(Irritation index of UV irradiation site)−(Irritation index of UV non-irradiation site) Equation 4]

[7] = target: T2, RARγ (Homo sapiens, UniProt P13631); assay: RARE-luciferase reporter assay in transfected CV-1 cells (affinity to retinoic acid receptor), RARγ; assay type: cell-based; conditions: treated 24 hours at final concentration 10^−4M, control group 5000
T2 construct: expressed in transfected cells; host or cells: CV-1 cells (ATCC)
T2 sequence (P13631 1-454): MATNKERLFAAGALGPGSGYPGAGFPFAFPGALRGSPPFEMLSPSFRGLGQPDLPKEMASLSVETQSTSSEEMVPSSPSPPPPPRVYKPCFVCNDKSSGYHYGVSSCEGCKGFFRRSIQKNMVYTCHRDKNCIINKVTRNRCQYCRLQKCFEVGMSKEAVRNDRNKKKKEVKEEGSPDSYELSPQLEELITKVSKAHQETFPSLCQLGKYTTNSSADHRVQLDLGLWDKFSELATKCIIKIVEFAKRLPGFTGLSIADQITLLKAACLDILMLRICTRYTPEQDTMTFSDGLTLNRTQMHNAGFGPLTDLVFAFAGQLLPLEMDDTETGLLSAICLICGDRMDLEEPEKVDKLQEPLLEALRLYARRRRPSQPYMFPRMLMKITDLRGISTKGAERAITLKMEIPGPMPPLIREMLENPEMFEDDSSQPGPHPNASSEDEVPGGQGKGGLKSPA
Description: as §2
CV-1 cells were seeded into 96-well microtiter plate at 5,000 cells per well and cultured in DMEM (Dulbecco's Modified Eagle's Media) supplemented with 2.5% fetal bovine serum. 24 Hours later, the cells were transfected with 10 ng of pECE-RARα, long of pECE-RARγ, 100 ng of reporter plasmid and 100 ng of β-galactosidase-expression vector, using LipofectaminPlus (GIBCO BRL, grand island, N.Y.).

Row | Compound | Collagenase expression (%) [1] | Luciferase activity RARα [2] | P.I.I. (Primary Irritation Index) [3] | Evaluation (skin irritation) [3] | Collagen biosynthesis (%) [4] | Elastase expression (%) [5] | Evaluation (phototoxicity) [6] | Phototoxic index [6] | Luciferase activity RARγ [7]
1 | Cc1ccc(N(C)C(=O)c2ccc(C(=O)NO)cc2)cc1C [Example 53, [4-(N-hydroxycarbamoyl)phenyl]-N-methyl-N-[3,4-dimethylphenyl]carboxyamide] | 75% | 14500 | 0.321 | No irritation | 122% | 80% | No phototoxicity (lower value than 0.5, criterion value to be estimated as no phototoxicity) | 0 | 12300
2 | O=C(Cc1ccc(NC(=O)C23CC4CC(CC(C4)C2)C3)cc1)NO [Example 32, N-[4-(N-hydroxycarbamoylmethyl)phenyl]adamantyl carboxyamide] | 79% | 18000 | 0.375 | No irritation | 125% | 74% | No phototoxicity (lower value than 0.5, criterion value to be estimated as no phototoxicity) | 0 | 10000
3 | CCCc1ccc(C(=O)Nc2ccc(C(=O)NO)cc2)cc1 [Example 5, N-[4-(N-hydroxycarbamoyl)phenyl][4-propylphenyl]carboxyamide] | 79% | 18000 | 0.375 | No irritation | 125% | 78% | No phototoxicity (lower value than 0.5, criterion value to be estimated as no phototoxicity) | 0 | 11000
4 | Cc1ccc(C(=O)N(C)c2ccc(C(=O)NO)cc2)cc1C [Example 20, N-[4-(N-hydroxcarbamoly)phenyl]-N-methyl-[3,4-dimethylphenyl]carboxyamide] | 68% | 12200 | 0.421 | No irritation | 122% | 78% | No phototoxicity (lower value than 0.5, criterion value to be estimated as no phototoxicity) | 0 | 12300
5 | Cc1ccc(C(=O)Nc2ccc(CC(=O)NO)cc2)cc1 [Example 24, N-[4-(N-hydroxycarbamoylmethyl)phenyl][4-methylphenyl]carboxyamide] | 76% | 12100 | 0.321 | No irritation | 121% | 82% | No phototoxicity (lower value than 0.5, criterion value to be estimated as no phototoxicity) | 0 | 11210
6 | CCCc1ccc(N(C)C(=O)c2ccc(C(=O)NO)cc2)cc1 [Example 49, [4-(N-hydroxycarbamoyl)phenyl]-N-methyl-N-[4-propylphenyl]carboxyamide] | 81% | 14500 | 0.342 | No irritation | 109% | 87% | No phototoxicity (lower value than 0.5, criterion value to be estimated as no phototoxicity) | 0 | 12100
7 | CN(C(=O)c1ccc(C(=O)NO)cc1)C12CC3CC(CC(C3)C1)C2 [Example 54, [4-(N-hydroxycarbamoyl)phenyl]-N-adamantyl-N-methylcarboxyamide] | 83% | 22500 | 0.567 | No irritation | 121% | 67% | No phototoxicity (lower value than 0.5, criterion value to be estimated as no phototoxicity) | 0 | 11000
8 | Cc1cccc(C(=O)Nc2ccc(C(=O)NO)cc2)c1 [Example 3, N-[4-(N-hydroxycarbamoyl)phenyl][3-methylphenyl]carboxyamide] | 80% | 11600 | 0.375 | No irritation | 120% | 69% | No phototoxicity (lower value than 0.5, criterion value to be estimated as no phototoxicity) | 0 | 10000
